{
  "source": "patent US20250352555A1",
  "about": "“METHOD OF INCREASING IMMUNE CELL ACTIVATION AND/OR TREATING CANCER USING DIBENZOXAZEPINONES” (VASCULAR THERAPEUTICS PTY LTD, priority 2022, published 2025)",
  "key": {"MeWo cells": {"system": "MeWo cells", "assay": "Apoptosis, flow cytometry with Annexin V-FITC, MeWo", "type": "cell-based, human", "settings": "1 μM, 24 h", "method": "Flow cytometry with Annexin V-FITC. Cells were seeded into 6 well plates in normal culture medium containing 10% FBS. After culturing overnight, the cells were incubated in complete medium containing vehicle, BT2 or SCH772984 at 1 μM and left for 24 h. The culture medium was removed and the cells were washed with PBS. Accutase (Stem Cell Technologies, cat. no. 07920) was used to detach the cells. The cells were then washed and centrifuged at 300 g for 5 min and resuspended at 1×10^6 cells/ml in 500 μl of 1× binding buffer (Annexin V-FITC Apoptosis Staining/Detection Kit, Abcam, cat. no. ab14085). The cells were transferred to 12×75 mm tubes and annexin V-FITC/propidium iodide (PI) was added and incubated for 5 min at 22° C. protected from light. Stained cell suspensions were analyzed by flow cytometry using a BD LSRFortessa X20.\nThe morphology of A375 and MeWo cells exposed to 1 μM of BT2 or SCH772984 for 24 h was also assessed."}, "endothelial cells": {"system": "endothelial cells", "settings": "shown previously, cited from earlier work"}, "p-JNK": {"system": "p-JNK", "assay": "Western blotting time course for p-JNK, Jurkat T cells", "type": "cell-based, human", "settings": "Western blot time course", "method": "(§1) Western blotting. Cells were treated with compounds and times indicated and total cell lysates were prepared in RIPA buffer. Lysates (10 μg) were resolved by SDS-PAGE and transferred to Immobilon-P polyvinylidene difluoride (PVDF) membranes (Millipore, USA).\n(§2) Membranes were blocked with 5% skim milk and incubated with rabbit monoclonal anti-c-Jun (Abcam, cat. no. ab32137; mouse, rat and human reactive) antibody, rabbit monoclonal anti-PD-1 (Abcam, cat. no. ab214421) antibody, mouse monoclonal β-actin antibody (Sigma-Aldrich, cat. no. A5316), anti-phospho-SAPK/JNK (Thr^183/Tyr^185) (98F2) (CST, cat. no. 4671) antibody, anti-phospho-p44/42 MAPK (ERK1/2) (Thr^202/Tyr^204) (D13.14.4E) (CST, cat. no. 4370) antibody, anti-phospho-p38 MAPK (Thr^180/Tyr^182) (D3F9) (CST, cat. no. 4511) antibody, anti-SAPK/JNK antibody (CST, cat. no. 9252), anti-p44/42 MAPK (ERK1/2) (137F5) antibody (CST, cat. no. 4695), anti-p38 MAPK antibody (CST, cat. no. 9212), anti-DUSP8 antibody (Abcam, cat. no. ab198175) or anti-c-MAF (BLR045F) antibody (Abcam, cat. no. ab243901). […] Chemiluminescence was detected using the Western Lightning Chemiluminescence system (Thermo Scientific, USA) and ImageQuant™ LAS 4000 biomolecular imager (GE Healthcare Life Sciences, USA). Band intensity in images generated with the LAS 4000 was quantified using NIH Image J. […]"}, "JUN": {"system": "JUN", "assay": "Western blotting time course for JUN, Jurkat T cells", "type": "cell-based, human", "settings": "Western blot time course", "method": "as §1, §2"}, "CD28": {"system": "CD28", "assay": "CD28 blockade experiment, JUN Western blot in Jurkat T cells", "type": "cell-based, human", "settings": "3 μM BT2 and 3 μM EGF, 24 h", "method": "CD28 blockade experiments. BT2 (3 nmol), vehicle or a mix of BT2 (3 nmol) and recombinant CD28 (3 nmol, Sino biological cat. no. 90182-C08H) or EGF (3 nmol, Sigma cat. no. E9644) in 150 μl growth medium (10% FBS/RPMI 1640 medium) was preincubated for 30 min at 37° C. The mixtures were added to 12-well plates containing 850 μl of 10% FBS/RPMI 1640 medium and 0.5×10^6 Jurkat T cells/well. After 24 h, total cell lysates were prepared in RIPA buffer. Lysates (10 μg) were resolved by SDS-PAGE and transferred to Immobilon-P polyvinylidene difluoride (PVDF) membranes (Millipore, USA). Membranes were blocked with 5% skim milk and incubated with rabbit monoclonal anti-JUN (Abcam, cat. no. ab32137) antibody, mouse monoclonal β-actin antibody (Sigma-Aldrich, cat. no. A5316), This was followed by incubation with horseradish peroxidase-conjugated secondary goat anti-rabbit (DAKO, cat. no. P0448) or goat anti-mouse (DAKO, cat. no. P0447) antibody. Chemiluminescence was detected using the Western Lightning Chemiluminescence system (Thermo Scientific, USA) and ImageQuant™ LAS 4000 biomolecular imager (GE Healthcare Life Sciences, USA). Band intensity in images generated with the LAS 4000 was quantified using NIH Image J. […]"}, "A375 cells": {"system": "A375 cells", "assay": "Migration assay (scratch), A375", "type": "cell-based, human", "settings": "1 μM, 24 h, with greater potency than SCH772984", "method": "Migration assays. Cells were grown in medium containing 10% FBS in 6-well plates. The following day the cells were scratched with a sterile toothpick, washed with PBS, and incubated in medium containing 10% FBS and vehicle, BT2 or SCH772984 at 1 μM. At 0, 24 h and 48 h the cells were photographed under a 4× objective using an Olympus CKX41 microscope. To assess the effect of BT2 on melanoma cell migration, A375 and MeWo cells were incubated with 1 μM of BT2 or SCH772984, and A375 and MeWo migration into the denuded zone was quantified after 24 or 48 h, respectively."}},
  "data": [
    {"smiles": "CCOC(=O)Nc1ccc2c(c1)C(=O)N(CC)c1ccccc1O2", "note": "[BT2, (10-ethyl-11-oxo-10,11-dihydro-dibenzo[b,f][1,4]oxazepin-2-yl)-carbamic acid ethyl ester]", "values": [
      {"measurement": "apoptosis (Annexin V-FITC+ PI−)", "setting": "MeWo cells", "result": "increased apoptosis"},
      {"measurement": "ERK phosphorylation and expression of FosB/ΔFosB and VCAM-1, and VEGF", "setting": "endothelial cells; endothelial cells", "result": "inhibit"},
      {"measurement": "endothelial cell proliferation and migration, angiogenesis and wound repair", "setting": "endothelial cells", "result": "inhibit"},
      {"measurement": "time to stimulation of JNK phosphorylation", "setting": "p-JNK", "result": "≤ 1", "unit": "h"},
      {"measurement": "time to induction of JUN at the protein level", "setting": "JUN", "result": "2 to 4", "unit": "h"},
      {"measurement": "induction of JUN after preincubation of BT2 with EGF", "setting": "CD28", "result": "still induced JUN"},
      {"measurement": "migration into the denuded zone", "setting": "A375 cells", "result": "suppressed melanoma migration"}
    ]}
  ]
}
